Consider 7 compounds from patent US7855290B2, “Pyridine derivatives and pyrimidine derivatives (3)” (Eisai R&D Management Co., Ltd., priority 2005, dated 2010).

A word on the IC50: it is the concentration needed to halve the response being measured. A low value points to higher potency.

In assay [1] the target is T1, His6-HGFR (HGFR cytoplasmic domain) (Homo sapiens, UniProt P08581).
T1 construct: made in house; host or cells: Sf9 insect cells (Spodoptera frugiperda), baculovirus, pFastBac-HT vector
Nature of the assay: Inhibitory activity against HGFR tyrosine kinase activity (HTRF). Format: biochemical. The following applies: biotin-poly(GT), ATP, 30° C. 10 min. From the text: The cytoplasmic domain of HGFR (Genbank Accession No. J02958) is a 1.3 kb DNA fragment beginning with Lys974 and including a stop codon, and described by Park et al. (Proc. Natl. Acad. Sci. U.S.A. 84(18), 6379-6383, 1987). The DNA fragment was isolated from the human placental cDNA library (purchased from Clontech) by PCR (TaKaRa Ex Taq™ Kit, purchased from TaKaRa) using two kinds of primers (SEQ ID NO: 1,5′-[…]-3′ and SEQ ID NO: 2,5′-[…]-3′, purchased from Invitrogen). The DNA fragment was cloned into a baculovirus transplace vector (pFastBac™-HT (purchased from GIBCO BRL)) to produce a recombinant construct. […] EGFR was purchased from Sigma (Production No. E-2645).
To the suspension of Sf9 cells (3×10^8 cells) in SF-900II medium (purchased from Invitrogen) containing 2% FBS was added a solution of HGFR transfected baculovirus above (4 ml), followed by a shaking culture at 27° C. for 48 hrs. The cells infected with the HGFR transfected baculovirus were centrifuged at 1,000 rpm, 4° C. for 5 min to remove the supernatant. The precipitated infected cells were suspended in 80 ml of ice-cold PBS, and centrifuged at 1,000 rpm, 4° C. for 5 min to remove the supernatant. The precipitated infected cells were suspended in 40 ml of ice-cold Lysis Buffer (50 mM Tris-HCl (pH 8.5), 5 mM 2-mercaptoethanol, 100 mM KCl, 1 mM PMSF and 1% (v/v) NP-40). The suspension was centrifuged at 12,000 rpm, 4° C. for 30 min to provide a supernatant.
The supernatant was loaded onto an Ni-NTA agarose column (3 ml, purchased from Qiagen) equilibrated with 30 ml of Buffer A (20 mM Tris-HCl (pH 8.5), 5 mM 2-mercaptoethanol, 500 mM KCl, 20 mM imidazole and 10% (v/v) glycerol). The column was washed with 30 ml of Buffer A, 6 ml of Buffer B (20 mM Tris-HCl (pH 8.5), 5 mM 2-mercaptoethanol, 1 M KCl, and 10% (v/v) glycerol) and 6 ml of Buffer A in this order. Then, the column was eluted with 6 ml of Buffer C (20 mM Tris-HCl (pH 8.5), 5 mM 2-mercaptoethanol, 100 mM KCl, 100 mM imidazole, and 10% (v/v) glycerol) to provide a fraction. The fraction was entrapped in a dialysis membrane (purchased from Spectrum Laboratories), dialyzed at 4° C. overnight with 1 L of dialysis buffer (20 mM Tris-HCl (pH 7.5), 10% (v/v) glycerol, 1 mM dithiothreitol, 0.1 mM Na3VO4 and 0.1 mM EGTA), and stored at −80° C. until used. […] The VEGFR2 cytoplasmic domain, the FGFR1 cytoplasmic domain, and the PDGFRβ cytoplasmic domain were fused with six histidine at the N terminus by the similar method to produce respective recombinant proteins (His6-VEGFR2, His6-FGFR1, and His6-PDGFRβ).
To each well of a 96-well round plate (purchased from NUNC, Production No. 163320) were added 10 μl of a solution for kinase reaction (200 mM Hepes (pH 7.4), 80 mM MgCl2, 16 mM MnCl2 and 2 mM Na3VO4), 250 ng of biotinylated poly(Glu4: Tyr1) (biotin-poly(GT), purchased from Japan Schering) (6 μl, 15-fold diluted with distilled water), 30 ng of His6-HGFR (10 μl, 60-fold diluted with 0.4% BSA) and a test substance dissolved in dimethylsulfoxide (4 μl, 100-fold diluted with 0.1% BSA) to mess up to 30 μl. To the well was added 10 μl of 4 μM ATP (purchased from Sigma) diluted with distilled water to incubate at 30° C. for 10 min, followed by adding 10 μl of 500 mM EDTA (pH 8.0) (purchased from Wako Pure Chemicals) to provide a kinase reaction solution.
The tyrosine-phosphorylated biotin-poly(GT) was detected using the Homogenous Time-Resolved Fluorescence (HTRF) method (Analytical Biochemistry, 269, 94-104, 1999).
(In general: In TR-FRET formats the signal depends on donor and acceptor labels being close together.)

Another assay concerns the target T2, HGFR (Homo sapiens, UniProt P08581).
T2 construct: endogenous in cells; host or cells: MKN-45 human gastric cancer cells
Put plainly: Inhibitory activity against the HGFR autophosphorylation using ELISA (MKN-45 cells). Format: cell-based. The following applies: 1 hr with test substance. The protocol: Human gastric cancer cells (MKN-45) were suspended in a 1% FBS-containing RPMI1640 medium (purchased from Sigma). The cell suspension (1×10^5 cells/ml) was put in a 96-well plate for cell culture (purchased from NUNC, Production No. 167008) at 0.1 ml/well, and then cultured in a 5% CO2 incubator (37° C.) overnight. After the culture, from each well was removed the supernatant, followed by adding 0.05 ml of a 1% FBS-containing RPMI1640 medium. Then, the well was supplied with 0.05 ml of the test substance dissolved in dimethyl sulfoxide (diluted with a 1% FBS-containing RPMI1640 medium), followed by culturing in a 5% CO2 incubator (37° C.) for 1 hr. From each well was removed the supernatant, and each well was washed with 150 μl of PBS, followed by adding 100 μl of a lysis buffer (50 mM Hepes (pH 7.4), 150 mM NaCl, 10% (v/v) glycerol, 1% Triton X-100, 1.5 mM MgCl2, 1 mM EDTA (pH 8.0), 100 mM NaF, 1 mM PMSF, 10 μg/ml Aprotinin, 50 μg/ml Leupeptin, 1 μg/ml Pepstatin A and 1 mM Na3VO4). The plate was shaken at 4° C. for 1 hr to prepare the cell extract.
To a 96-well plate for ELISA (purchased from COSTAR, Production No. 3369) was added 50 μl of 60 mM bicarbonate buffer (pH 9.6) containing 50 μg/ml of an anti-phosphotyrosine antibody (PY20, purchased from Transduction Laboratory, Production No. P-11120). The plate was incubated at 4° C. overnight.
Each well of the plate prepared in 2. was washed three times with 200 μl of PBS, and supplied with 150 μl of 3% BSA/PBS, followed by incubating at room temperature for 2 hrs. Each well was washed three times with 200 μl of PBS, and supplied with 50 μl of the above cell extract, followed by incubating at 4° C. overnight. After the incubation, each well was washed three times with 250 μl of a washing solution (0.1% BSA, 20 mM Tris-HCl (pH 7.6), 137 mM NaCl, and 0.05% Tween-20), and supplied with 70 μl of anti-HGFR antibody (h-Met(C-12), purchased from Santa Cruz, Production No. sc-10) 2,000-fold diluted with a reaction solution (1% BSA, 20 mM Tris-HCl (pH 7.6), 137 mM NaCl and 0.05% Tween-20), followed by incubating at room temperature for 1 hr. The well was washed three times with 250 μl of the washing solution, and supplied with 70 μl of peroxidase-labelled anti-rabbit IgG antibody (purchased from Cell Signaling, Production No. 7074) 2,000-fold diluted with the reaction solution, followed by incubating at room temperature for 1 hr. Each well was washed three times with 250 μl of the washing solution, and supplied with 70 μl of TMB Membrane Peroxidase Substrate (purchased from Funakoshi, Production No. 50-5077-03), followed by incubating at room temperature for 10 min. Each well was supplied with 70 μl of 1 M phosphoric acid, and using the Plate Reader MTP-500 (Corona Electric), the absorbance of the well was instantly determined at a measurement wavelength of 450 nm. While defining the absorbance of a well supplied with the cell extract having no test substance as 100% HGFR autophosphorylation activity, and the absorbance of a well supplied with 50 μl of the lysis buffer as 0% HGFR autophosphorylation activity, the HGFR autophosphorylation activity (%) was calculated for each well.
A general note: ELISA stands for enzyme-linked immunosorbent assay.

The subject of assay [2] is Human gastric cancer cells (MKN-45). Nature of the assay: Inhibitory activity against the proliferation of human gastric cancer cells (MKN-45). In kind it is cell-based. The settings on record: 72 h, MKN-45, 1% FBS RPMI1640, 3 days, Cell Counting Kit-8. The protocol:
Human gastric cancer cells (MKN-45) were suspended in a 1% FBS-containing RPMI1640 medium (purchased from Sigma). The cell suspension (1×10^4 cells/ml) was added in a 96-well plate for cell culture (purchased from NUNC, Production No. 167008) at 0.1 ml/well, and then cultured in a 5% CO2 incubator (37° C.) overnight. After the culture, each well was supplied with 0.1 ml of a test substance diluted with a 1% FBS-containing RPMI1640 medium, followed by culturing in a 5% CO2 incubator (37° C.) for 3 days. After the culture, each well was supplied with 10 μl of Cell Counting Kit-8 (purchased from DOJINDO, Production No. 343-07623), followed by incubation in a 5% CO2 incubator (37° C.) for about 1.5 hrs. After the incubation, using the Plate Reader MTP-500 (Corona Electric), the absorbance of each well was determined at a measurement wavelength of 450 nm and a reference wavelength of 660 nm.
In general terms: Tetrazolium assays rely on reduction of a dye to a coloured formazan, in cell work by metabolically active cells.

T1 sequence (P08581 956-1390 limits assumed): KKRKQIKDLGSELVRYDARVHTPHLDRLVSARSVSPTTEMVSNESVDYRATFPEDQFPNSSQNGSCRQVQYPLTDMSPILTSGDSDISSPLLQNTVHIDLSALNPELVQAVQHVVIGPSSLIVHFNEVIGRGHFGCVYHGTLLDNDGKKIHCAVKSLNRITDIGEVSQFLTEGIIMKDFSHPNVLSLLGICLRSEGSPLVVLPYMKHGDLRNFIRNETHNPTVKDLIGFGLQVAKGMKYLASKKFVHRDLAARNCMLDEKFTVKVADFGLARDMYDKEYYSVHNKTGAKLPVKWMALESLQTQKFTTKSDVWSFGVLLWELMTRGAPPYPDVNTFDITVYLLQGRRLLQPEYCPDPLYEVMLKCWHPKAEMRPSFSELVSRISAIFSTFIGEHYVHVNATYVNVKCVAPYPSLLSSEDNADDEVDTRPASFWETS
T2 sequence (P08581 25-1390): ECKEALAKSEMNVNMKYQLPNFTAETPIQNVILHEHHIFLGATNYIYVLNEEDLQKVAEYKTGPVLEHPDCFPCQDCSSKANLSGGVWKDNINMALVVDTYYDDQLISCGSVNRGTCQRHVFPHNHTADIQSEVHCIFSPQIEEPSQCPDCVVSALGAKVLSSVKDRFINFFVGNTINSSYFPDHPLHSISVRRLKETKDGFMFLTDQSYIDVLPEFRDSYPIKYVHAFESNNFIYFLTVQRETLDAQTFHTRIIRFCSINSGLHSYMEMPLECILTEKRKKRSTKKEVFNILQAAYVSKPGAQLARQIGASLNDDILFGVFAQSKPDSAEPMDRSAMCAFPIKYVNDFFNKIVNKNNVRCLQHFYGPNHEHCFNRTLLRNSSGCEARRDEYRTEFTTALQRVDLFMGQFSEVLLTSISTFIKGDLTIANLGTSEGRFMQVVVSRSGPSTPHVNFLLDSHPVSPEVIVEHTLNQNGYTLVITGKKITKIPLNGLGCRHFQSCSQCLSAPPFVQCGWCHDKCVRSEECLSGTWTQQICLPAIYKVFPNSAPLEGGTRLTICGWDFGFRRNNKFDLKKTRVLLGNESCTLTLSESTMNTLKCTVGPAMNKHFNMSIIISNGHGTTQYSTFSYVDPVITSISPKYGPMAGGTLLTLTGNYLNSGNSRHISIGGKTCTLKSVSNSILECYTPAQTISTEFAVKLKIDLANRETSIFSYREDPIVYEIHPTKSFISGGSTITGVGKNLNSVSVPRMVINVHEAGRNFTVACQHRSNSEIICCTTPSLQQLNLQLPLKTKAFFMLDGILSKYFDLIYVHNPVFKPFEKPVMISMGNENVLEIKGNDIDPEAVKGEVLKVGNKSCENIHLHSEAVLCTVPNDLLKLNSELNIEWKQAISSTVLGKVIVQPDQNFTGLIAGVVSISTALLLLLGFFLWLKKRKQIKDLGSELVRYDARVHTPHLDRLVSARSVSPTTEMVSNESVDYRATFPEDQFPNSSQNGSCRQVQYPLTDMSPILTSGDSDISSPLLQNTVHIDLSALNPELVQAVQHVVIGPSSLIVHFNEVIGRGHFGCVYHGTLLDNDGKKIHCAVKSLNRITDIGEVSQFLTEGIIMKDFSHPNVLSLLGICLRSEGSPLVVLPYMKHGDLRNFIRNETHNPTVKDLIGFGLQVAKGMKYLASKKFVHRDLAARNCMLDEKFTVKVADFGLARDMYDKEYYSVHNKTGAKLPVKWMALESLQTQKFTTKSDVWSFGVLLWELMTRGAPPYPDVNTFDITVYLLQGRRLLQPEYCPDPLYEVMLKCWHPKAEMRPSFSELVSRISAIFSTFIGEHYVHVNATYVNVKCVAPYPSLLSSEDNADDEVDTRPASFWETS

As for `CN(C)CC1CCN(C(=O)Nc2cc(Oc3ccc(NC(=O)C4(C(=O)Nc5ccc(F)cc5)CCC4)cc3F)ccn2)CC1` [Example 6, N-[4-({2-[({4-[(Dimethylamino)methyl]piperidin-1-yl}carbonyl)amino]pyridin-4-yl}oxy)-3-fluorophenyl]-N′-(4-fluorophenyl)cyclobutane-1,1-dicarboxamide], the IC50 in assay [1] worked out at 640 nM. As to `CN1CCC(N(C)C(=O)Nc2cc(Oc3ccc(NC(=O)C4(C(=O)NCc5ccccc5)CC4)c(F)c3)ccn2)CC1` [Example 49, N-Benzyl-N′-(2-fluoro-4-{[2-({[methyl(1-methylpiperidin-4-yl)amino]carbonyl}amino)pyridin-4-yl]oxy}phenyl)cyclopropane-1,1-dicarboxamide], the IC50 in assay [1] came out at 180 nM; at HGFR, 260 nM. With `CN1CCC(N(C)C(=O)Nc2cc(Oc3ccc(NC(=O)C4(C(=O)Nc5cccnc5)CC4)c(F)c3)ccn2)CC1` [Example 51, N-(2-Fluoro-4-{[2-({[methyl(1-methylpiperidin-4-yl)amino]carbonyl}amino)pyridin-4-yl]oxy}phenyl)-N′-pyridin-3-ylcyclopropane-1,1-dicarboxamide], the values for the half-maximal inhibitory concentration (IC50) (in assay [1]; against HGFR) were 250 nM and 380 nM, respectively. For `CN1CCC(N(C)C(=O)Nc2cc(Oc3ccc(NC(=O)C4(C(=O)NC5CCCC5)CC4)c(F)c3)ccn2)CC1` [Example 52, N-Cyclopentyl-N′-(2-fluoro-4-{[2-({[methyl(1-methylpiperidin-4-yl)amino]carbonyl}amino)pyridin-4-yl]oxy}phenyl)cyclopropane-1,1-dicarboxamide], the IC50 in assay [1] came to 160 nM; against HGFR, 170 nM. Regarding `O=C(Nc1cc(Oc2cc(F)c(NC(=O)C3(C(=O)Nc4ccc(F)cc4)CC3)cc2F)ccn1)N1CC(O)C1` [Example 91, N-[2,5-Difluoro-4-[(2-{[(3-hydroxyazetidin-1-yl)carbonyl]amino}pyridin-4-yl)oxy]phenyl}1-N′-(4-fluorophenyl)cyclopropane-1,1-dicarboxamide], in assay [2], the IC50 was determined as 5 nM. Regarding `CN1CCC(N(C)C(=O)Nc2cc(Oc3ccc(NC(=O)C4(C(=O)NCC(C)(C)C)CC4)c(F)c3)ccn2)CC1` [Example 53, N-(2,2-Dimethylpropyl)-N′-(2-fluoro-4-{[2-({[methyl(1-methylpiperidin-4-yl)amino]carbonyl}amino)pyridin-4-yl]oxy}phenyl)cyclopropane-1,1-dicarboxamide], the IC50 was 270 nM in assay [1] and 370 nM against HGFR. In the case of `CN1CCC(N(C)C(=O)Nc2cc(Oc3cc(F)c(NC(=O)C4(C(=O)Nc5ccc(F)cc5)CC4)cc3F)ccn2)CC1` [Example 94], the IC50 in assay [2] turned out to be 4.9 nM.
